Tests used:
[1] = Stability of compound in presence water assessed as pseudo-first order degradation rate constant at 10 uM at 20degC over 24 hrs; assay type: physicochemical; details: buffer
[2] = Stability of compound in presence of oxyhemoglobin assessed as pseudo-first order degradation rate constant at 10 uM at 20degC over 24 hrs; assay type: ADME
[3] = Stability of compound in presence of […] assessed as pseudo-first order degradation rate constant at 10 uM at 20degC over 24 hrs; assay type: ADME

| Compound | Activity [1] | Activity [2] | Activity [3] |
| --- | --- | --- | --- |
| O=C(O)C[C@H]1CC[C@]2(CC1)OO[C@]1(O2)C2CC3CC(C2)CC1C3 | 0.006 h⁻¹ | 0.01 h⁻¹ | 0.006 h⁻¹ |
| CO[C@H]1O[C@@H]2O[C@@]3(C)CC[C@H]4[C@H](C)CC[C@@H]([C@H]1C)[C@@]24OO3 [ARTEMETHER] | 0.002 h⁻¹ | 0.007 h⁻¹ | 0.002 h⁻¹ |
| C[C@@H]1CC[C@H]2[C@@H](C)C(=O)O[C@@H]3O[C@@]4(C)CC[C@@H]1[C@]32OO4 [ARTEMISININ] | 0.0004 h⁻¹ | 0.008 h⁻¹ | 0.003 h⁻¹ |
| C[C@H]1[C@@H](O)O[C@@H]2O[C@@]3(C)CC[C@H]4[C@H](C)CC[C@@H]1[C@@]24OO3 [ARTENIMOL] | 0.00001 h⁻¹ | 0.017 h⁻¹ | 0.004 h⁻¹ |
| CC(C)(N)CNC(=O)C[C@H]1CC[C@]2(CC1)OO[C@]1(O2)C2CC3CC(C2)CC1C3 [OZ277] | 0.015 h⁻¹ | 0.01 h⁻¹ | 0.013 h⁻¹ |

From ChEMBL document CHEMBL1649549, “Stability of peroxide antimalarials in the presence of human hemoglobin” (Antimicrob Agents Chemother, 2009)
